Values after ≈ are worked out from the molar mass of the structure shown. Blank lines part the entries; values can stand above or below the molecule they belong to.
Experiments:
human washed platelets = assay: human platelet aggregation assay with PAR1/2 agonist SFLLRN-NH2; format: cell-based; conditions: parmodulins at 10 μM, SFLLRN-NH2 (5 μM)
Protocol: FIGS. 5A-5B depicts results of a human platelet aggregation assay of A) ML161 (10 μM, red trace) and B) NRD-21 (10 μM, red trace) in the presence of the PAR1/2 agonist SFLLRN-NH2 ([…]). Blue traces=DMSO.
Next, an assay was performed to measure the ability of NRD-21 to inhibit platelet aggregation. PAR1 is highly expressed in platelets, and its activation leads to aggregation and coagulation. The platelet aggregation assay was performed with ML161 and NRD-21. In both cases, human washed platelets were incubated with parmodulins at 10 μM, then the PAR1/2 agonist SFLLRN-NH2 (5 μM) was added. (FIG. 5).

PAR1 [1] = target: T1, PAR1 (Homo sapiens, UniProt P25116); assay: PAR1 (TFLLRN-NH2)-driven intracellular calcium mobilization (iCa2+) assay with Ea.hy926 cells; format: cell-based; conditions: for iCa2+ assay pIC50 / IC50: 5 μM TFLLRN-NH2, EA.hy926 cells, curves fitted to 3 wells per concentration; for inhibition at 10 µM: EA.hy 926, 10 μM compound, 5 μM TFLLRN-NH2, adherent EA.hy926 endothelial cells, n=4 wells, ± SEM, read-out: iCa2+ assay % Inhib; for IC50: read-out: iCa2+ assay pIC50 (converted)
T1 construct: endogenous in cells; host or cells: EA.hy926 endothelial cells
T1 sequence (P25116 22-425): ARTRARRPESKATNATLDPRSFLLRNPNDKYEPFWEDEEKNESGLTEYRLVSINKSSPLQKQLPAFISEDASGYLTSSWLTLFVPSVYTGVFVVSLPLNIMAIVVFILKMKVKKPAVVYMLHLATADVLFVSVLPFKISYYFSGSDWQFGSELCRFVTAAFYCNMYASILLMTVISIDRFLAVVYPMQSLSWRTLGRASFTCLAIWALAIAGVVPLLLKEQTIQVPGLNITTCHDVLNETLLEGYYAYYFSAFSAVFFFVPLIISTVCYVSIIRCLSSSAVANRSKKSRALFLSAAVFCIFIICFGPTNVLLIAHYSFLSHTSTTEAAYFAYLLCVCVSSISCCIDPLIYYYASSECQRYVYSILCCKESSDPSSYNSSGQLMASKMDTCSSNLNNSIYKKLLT
Protocol: FIGS. 1A-1D depicts concentration-response curves for PAR1 antagonists in the TFLLRN-NH2-mediated (5 μM) intracellular calcium mobilization (iCa^2+) assay with Ea.hy926 cells: A) 35 (VAK-7), B) 39 (NRD-23), C) 9 (NRD-25), D) 38 (NRD-21). Cells were loaded with the calcium-binding dye Fluo-4/AM, and changes in calcium concentration were measured with a plate reader.
Our interest in measuring the effects of parmodulins in endothelial cells led us to develop a protocol for an […] calcium mobilization (iCa^2+) assay using adherent Ea.hy926 cells in 96 well plates.^24 This assay also offers higher throughput and lower variability than the platelet P-selectin assay, so we have utilized it as our primary assay for our ongoing studies. Compounds were screened in 96 well plates at a concentration of 10 μM, using the PAR1 tethered ligand peptide TFLLRN (5 μM) as agonist.
The intracellular calcium mobilization assay was performed with Ea.hy926 cells according to our published protocol (Bioorg. Med. Chem. 2018, 9, 2514-2529), using TFLLRN-NH2 as PAR1 agonist.
^aAssays were performed with adherent EA.hy926 endothelial cells. % Inhibition was measured at 10 μM with 5 μM TFLLRN-NH2 and n=4 wells, unless otherwise noted, with standard error of the mean (SEM) provided. pIC50s (-logIC50S) were estimated from curves fitted to measurements on 3 separate wells for each concentration, using 4-variable non-linear regression in GraphPad Prism v.6.

[2] = stability in human liver microsomes; format: in vitro ADME; conditions: 1 h
[3] = kinetic aqueous solubility assay; format: physicochemical; conditions: aqueous solution with 2.5% DMSO
[4] = target: T2, serotonin transporter (SERT) (Homo sapiens, UniProt P31645); assay: PDSP off-target radioligand binding, SERT
T2 construct: Psychoactive Drug Screening Program (PDSP)

mouse plasma stability = format: in vitro ADME; conditions: after 4 h in mouse plasma
Protocol: The term “plasma stability” as used herein refers to the ability of the compound to remain intact after incubation with plasma, for example, mouse plasma or human plasma, after a certain period of time. For example, the compounds of the present invention (e.g., compounds of formula I) have a greater half-life for plasma stability than prior compounds (for example, greater half-life stability than ML161). Methods of determining the plasma stability of the compounds are known in the art. For example, one can measure the amount of compound remaining by HPLC after a 4 h incubation in plasma, or if multiple time points are taken, a half-life for plasma stability can be calculated. As described in the Examples and Table 5, the % compound remaining after 4 h-incubation in mouse plasma is substantially better than the compounds of the prior art (e.g., ML161). For example, increased plasma stability can be at least 20% of the compound remains after 4 hour incubation in plasma, alternatively at least 30% of the compound remains after 4 hour incubation in plasma.
We measured its stability and a number of parameters relevant to its use as an in vivo probe (Table 5, FIG. 7). Importantly, NRD-21 is much more plasma stable than ML161. After 4 h in mouse plasma, 32% of NRD-21 remained, while ML161 was less than 1%.

[5] = target: T3, peripheral benzodiazepine receptor (PBR) (Rattus norvegicus, UniProt P16257); assay: PDSP off-target radioligand binding, PBR; conditions: PDSP profiling
T3 construct: Psychoactive Drug Screening Program (PDSP)

hepG2 = assay: toxicity in a human cell line (hepG2); format: cell-based
[6] = tested on: tissue factor (TF) expression; assay: qPCR assay of TNF-α induced tissue factor (TF) expression in HUVEC; format: cell-based, human; conditions: 10 μM inhibitor, TNF-α 25 ng/mL, mRNA at 4 h
Protocol: FIG. 6 is a graph depicting results of a qPCR assay (n=3) measuring the inhibition of TNF-α (25 ng/mL) induced tissue factor (TF) expression in HUVEC after treatment with ML161 and NRD-21 (10 μM). Inhibitors were added at t=0, TNF-α was added at t=1 h, and mRNA was measured at t=4 h.
To this end, we performed a qPCR assay measuring the expression of tissue factor (TF) in endothelial cells (HUVEC) in response to the inflammatory cytokine Tumor Necrosis Factor-alpha (TNF-α). TF has been long established to mediate the pro-inflammatory and pro-coagulant effects^27 of TNF-α^28,29 and endotoxins,^30 and unnatural TF expression is therefore the driver of disseminated intravascular coagulation (DIC) observed under conditions of cancer or sepsis.^31 We measured the level of TF mRNA 4 h after treatment with ML161 or NRD-21 followed by the addition of TNF-α (FIG. 6).

human plasma stability = format: in vitro ADME; conditions: after 4 h in human plasma
Excerpt: FIG. 8. Human plasma stability of ML161 (left) and NRD-21 (right). Points indicate the natural logarithm of the average concentration of compound remaining, with 3 replicates at each time point.

[7] = species not stated in b8; mouse plasma; reference 20; cited from earlier work
PAR1 [8] = target: T1, PAR1; conditions: from reference 24; cited from earlier work
[9] = tested on: necrosis of coronary tissue; conditions: mouse MI model, reference 23; cited from earlier work

T2 sequence (P31645 whole entry, species assumed): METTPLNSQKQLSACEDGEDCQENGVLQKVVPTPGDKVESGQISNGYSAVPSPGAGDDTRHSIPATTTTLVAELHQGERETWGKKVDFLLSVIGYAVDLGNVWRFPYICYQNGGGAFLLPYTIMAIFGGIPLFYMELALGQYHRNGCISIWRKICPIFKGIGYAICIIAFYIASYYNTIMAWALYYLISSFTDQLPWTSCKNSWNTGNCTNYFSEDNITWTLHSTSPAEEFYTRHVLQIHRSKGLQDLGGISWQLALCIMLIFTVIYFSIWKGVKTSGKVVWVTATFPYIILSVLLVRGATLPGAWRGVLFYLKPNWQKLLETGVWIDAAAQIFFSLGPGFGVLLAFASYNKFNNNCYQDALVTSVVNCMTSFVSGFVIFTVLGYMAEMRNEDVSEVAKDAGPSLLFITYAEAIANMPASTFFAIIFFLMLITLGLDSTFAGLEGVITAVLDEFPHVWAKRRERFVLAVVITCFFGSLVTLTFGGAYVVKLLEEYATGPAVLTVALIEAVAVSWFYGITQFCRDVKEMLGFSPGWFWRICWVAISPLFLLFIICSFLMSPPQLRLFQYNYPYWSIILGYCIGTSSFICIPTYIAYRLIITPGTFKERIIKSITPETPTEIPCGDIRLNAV

Compound: O=C(Nc1cccc(NC(=O)c2ccccc2Cl)c1)c1cnco1 [Compound 7, N-[3-(2-chlorobenzamido)phenyl]-1,3-oxazole-5-carboxamide]
- IC50 (PAR1 [1]): 398 nM
- inhibition at 10 µM (PAR1 [1]): 66 ± 13%

Compound: O=C(Nc1cccc(NC(=O)c2ccccc2Br)c1)c1ccoc1 [Compound 9, N-[3-(2-bromobenzamido)phenyl]furan-3-carboxamide]
- IC50 (PAR1 [1]): 40.7 nM
- inhibition at 10 µM (PAR1 [1]): 97 ± 13%

Compound: O=C(Nc1cccc(NC(=O)C2CCCO2)c1)c1ccccc1Br (centres unmarked) [Compound 10, N-[3-(2-bromobenzamido)phenyl]oxolane-2-carboxamide]
- inhibition at 10 µM (PAR1 [1]): 42 ± 3%

Compound: O=C(Nc1cccc(NC(=O)C2CCOC2)c1)c1ccccc1Br (centres unmarked) [Compound 11, N-[3-(2-bromobenzamido)phenyl]oxolane-3-carboxamide]
- inhibition at 10 µM (PAR1 [1]): 44 ± 2%

Compound: CCCC(=O)Nc1cccc(NC(=O)c2ccccc2Br)c1 [ML161, reference compound]
- stability in plasma [7]: low stability in plasma
- inhibition of platelet aggregation (human washed platelets): Complete inhibition of platelet aggregation
- stability in the presence of human liver microsomes [2]: excellent stability
- effect on SERT in radioligand binding profiling [4]: activation
- mode of action at PAR1 signaling via Gq (PAR1 [8]): selective, reversible, and allosteric inhibitors (negative allosteric modulators)
- % compound remaining in mouse plasma (mouse plasma stability): less than 1%
- minimizing necrosis of coronary tissue [9]: highly effective at minimizing necrosis of coronary tissue
- effect on radioligand binding to PBR [5]: inhibition of binding
- TF mRNA level after TNF-α [6]: blocked the ˜3-fold increase in TF expression
- % compound remaining in human plasma (human plasma stability): 79%

Now from value to molecule, other results behind:

- iCa2+ assay pIC50 (PAR1 [1]): 6.3 ± 0.1
- inhibition at 10 µM (PAR1 [1]): 59 ± 13%
- stability in the presence of human liver microsomes [2]: no apparent degradation after 1 h
- solubility [3]: 17 µM (≈ 6.57 µg/mL)
- effect on SERT in radioligand binding profiling [4]: activation
- % compound remaining in mouse plasma (mouse plasma stability): 32%
- effect on radioligand binding to PBR [5]: inhibition of binding
- % compound remaining in human plasma (human plasma stability): 97%
Compound: O=C(Nc1cccc(NC(=O)c2ccccc2Br)c1)c1cnco1 [Compound 5, N-[3-(2-bromobenzamido)phenyl]-1,3-oxazole-5-carboxamide]
- inhibition of platelet aggregation (human washed platelets): Complete inhibition of platelet aggregation
- mode of action at PAR1 (PAR1 [1]): selective negative allosteric modulator of PAR1
- toxicity in hepG2 (hepG2): no measurable toxicity
- TF mRNA level after TNF-α [6]: dropping TF RNA levels to below baseline levels

- iCa2+ assay pIC50 (PAR1 [1]): 6.4 ± 0.1
- inhibition at 10 µM (PAR1 [1]): 82 ± 1%
Compound: O=C(Nc1cccc(NC(=O)c2ccccc2Br)c1)c1cocn1 [Compound 6, N-[3-(2-bromobenzamido)phenyl]-1,3-oxazole-4-carboxamide]

- IC50 (PAR1 [1]): 93.3 nM
- inhibition at 10 µM (PAR1 [1]): 56 ± 6%
Compound: O=C(Nc1cccc(NC(=O)c2ccccc2Br)c1)c1cncs1 [Compound 8, N-[3-(2-bromobenzamido)phenyl]-1,3-thiazole-5-carboxamide]

— patent US11130743B2, “Heterocyclic ligands of PAR1 and methods of use” (Marquette University, priority 2019, dated 2021)
